Earlier results in patent US6057161A (priority 1997, dated 2000).
Where two headings read alike, the source gives them in different places.

Compound	metabolism, accumulation or excretion (in words) (body)	time found in the urine after administration of heroin (in vivo)	further results
CN1[C@H]2CC[C@@H]1[C@@H](C(=O)O)[C@@H](OC(=O)c1ccccc1)C2 [Benzoylecgonine]	can be detected in the urine for a longer period of time than ecgonine methyl ester	–	–
COC(=O)[C@H]1[C@@H](OC(=O)c2ccccc2)C[C@@H]2CC[C@H]1N2C [Cocaine]	–	–	metabolism, accumulation or excretion (in words) (in vivo): rapidly metabolized in the body
CN1CC[C@]23c4c5ccc(O[C@@H]6O[C@H](C(=O)O)[C@@H](O)[C@H](O)[C@H]6O)c4O[C@H]2[C@@H](O)C=C[C@H]3[C@H]1C5 [Morphine-3-glucoronide, morphine-3-glucuronide]	–	up to 40 hours	–
CN1CC[C@]23c4c5ccc(O)c4O[C@H]2[C@@H](O)C=C[C@H]3[C@H]1C5 [Morphine]	–	up to 40 hours	–
CCCCCc1cc(O)c2c(c1)OC(C)(C)[C@@H]1CCC(C(=O)O)=C[C@@H]21 [THC-COOH]	excreted in the urine as a glucuronic acid conjugate at detectable levels	–	–
